# Data reported in patent US11266643B2, “Triaryl compounds for treatment of PD-L1 diseases” (CHEMOCENTRYX, INC., priority 2019, dated 2022).
# Target: human PD-L1 (Homo sapiens (Human), UniProt Q9NZQ7)
# Experiment: Enzyme-Linked Immunosorbent Assay (ELISA), PD-1/PD-L1 binding
# Conditions: human PD-1/PD-L1 ELISA, plates coated with human PD-L1
# Procedure: 96 Well plates were coated with […] of human PD-L1 (obtained from R&D) in PBS overnight at 4° C. The wells were then blocked with 2% BSA in PBS (W/V) with 0.05% TWEEN-20 for 1 hour at 37° C. The plates were washed 3 times with PBS/0.05% TWEEN-20 and the compounds were serial diluted (1:5) in dilution medium and added to the ELISA plates. Human PD-1 […] 0.31 μg/mL (ACRO Biosystems) were added and incubated for 1 hour at 37° C. then washed 3 times with PBS/0.05% TWEEN-20. A second block was performed with 2% BSA in PBS (W/V)/0.05% TWEEN-20 for 10 min at 37° C. and the plates were washed 3 times with PBS/0.05% TWEEN-20. Streptavidin-HRP was added for 1 hour at 37° C. then the plates were washed 3 times with PBS/0.05% TWEEN-20. TMB substrate was added and reacted for 20 min at 37° C. A stop solution (2 N aqueous H2SO4) was added. The absorbance was read at 450 nm using a micro-plate spectrophotometer.
# Using the methods described in the Examples above, the compounds in Table 2 were prepared & tested for biological activity using the ELISA method described above.
# human PD-L1, sequence (Q9NZQ7 19-239): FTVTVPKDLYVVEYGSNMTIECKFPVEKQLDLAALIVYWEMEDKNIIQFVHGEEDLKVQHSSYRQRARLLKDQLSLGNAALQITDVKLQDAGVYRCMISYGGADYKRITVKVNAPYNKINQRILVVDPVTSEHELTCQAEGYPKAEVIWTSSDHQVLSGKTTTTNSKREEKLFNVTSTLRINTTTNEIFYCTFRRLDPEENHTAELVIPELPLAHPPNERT
row,IC50,SMILES
1,10 to 1000 nM,COc1cc(-c2cccc(-c3cccc(NC(=O)c4nn(C)c(=O)n(C)c4=O)c3C)c2C)cc(F)c1CN[C@H]1CCCNC1=O [Example 1.060]
2,< 10 nM,COc1cc(-c2cccc(-c3cccc(NC(=O)c4nn(C)c(=O)n(C)c4=O)c3C)c2C)cc(F)c1CNCCCC(N)=O [Example 1.062]
3,< 10 nM,COc1cc(-c2cccc(-c3cccc(NC(=O)c4nn(C)c(=O)n(C)c4=O)c3C)c2C)cc(F)c1CNCC(C)(C)C(N)=O [Example 1.063]
4,< 10 nM,COc1cc(-c2cccc(-c3cccc(NC(=O)c4nn(C)c(=O)n(C)c4=O)c3C)c2C)cc(F)c1CNCC(N)=O [Example 1.064]
5,< 10 nM,COc1cc(-c2cccc(-c3cccc(NC(=O)c4nn(C)c(=O)n(C)c4=O)c3C)c2C)cc(F)c1CNC(C)C [Example 1.065]
6,< 10 nM,COc1cc(-c2cccc(-c3cccc(NC(=O)c4cncn(C)c4=O)c3C)c2C)cc(F)c1CN[C@@H]1CCOC[C@@H]1O [Example 1.066]
7,< 10 nM,COc1cc(-c2cccc(-c3cccc(NC(=O)c4cn(C)c(=O)n(C)c4=O)c3C)c2C)cc(F)c1CNCC1CCNC(=O)C1 (centres unmarked) [Example 1.067]
8,< 10 nM,COc1cc(-c2cccc(-c3cccc(NC(=O)c4nn(C)c(=O)n(C)c4=O)c3C)c2C)cc(F)c1CNC[C@H]1CCC(=O)N1 [Example 1.068]
9,< 10 nM,COc1cc(-c2cccc(-c3cccc(NC(=O)c4nn(C)c(=O)n(C)c4=O)c3C)c2C)cc(F)c1CN[C@@H]1CCC(=O)NC1 [Example 1.069]
10,< 10 nM,COc1cc(-c2cccc(-c3cccc(NC(=O)c4nn(C)c(=O)n(C)c4=O)c3C)c2C)cc(F)c1CN[C@H]1CNC(=O)C1 [Example 1.070]
11,< 10 nM,COc1cc(-c2cccc(-c3cccc(NC(=O)c4c[nH]c(=O)n(C)c4=O)c3C)c2C)cc(F)c1CNCC1CCNC(=O)C1 (centres unmarked) [Example 1.071]
12,< 10 nM,COc1cc(-c2cccc(-c3cccc(NC(=O)c4cn(C)c(=O)n(C)c4=O)c3C)c2C)cc(F)c1CN[C@H]1COC[C@@H]1O [Example 1.072]
13,10 to 1000 nM,COc1cc(-c2cccc(-c3cccc(NC(=O)c4c[nH]c(=O)n(C)c4=O)c3C)c2C)cc(F)c1CN(C)[C@@H]1CNC(=O)C1 [Example 1.073]
14,10 to 1000 nM,COc1cc(-c2cccc(-c3cccc(NC(=O)c4cccn(C)c4=O)c3C)c2C)cc(F)c1CN(C)[C@@H]1CNC(=O)C1 [Example 1.074]
15,< 10 nM,COc1cc(-c2cccc(-c3cccc(NC(=O)c4nn(C)c(=O)n(C)c4=O)c3C)c2C)cc(F)c1CN[C@@H]1CCOC[C@@H]1O [Example 1.076]
16,< 10 nM,COc1cc(-c2cccc(-c3cccc(NC(=O)c4nn(C)c(=O)n(C)c4=O)c3C)c2C)cc(F)c1CN(C)C[C@@H]1CCC(=O)N1 [Example 1.077]
17,< 10 nM,COc1cc(-c2cccc(-c3cccc(NC(=O)c4c[nH]c(=O)n(C)c4=O)c3C)c2C)cc(F)c1CN[C@@H]1COC[C@H]1O [Example 1.078]
18,< 10 nM,COc1cc(-c2cccc(-c3cccc(NC(=O)c4c[nH]c(=O)n(C)c4=O)c3C)c2C)cc(F)c1CN[C@H]1COC[C@@H]1O [Example 1.079]
19,< 10 nM,COc1cc(-c2cccc(-c3cccc(NC(=O)c4cn(C)c(=O)n(C)c4=O)c3C)c2C)cc(F)c1CNCC(C)(C)C(N)=O [Example 1.080]
20,< 10 nM,COc1cc(-c2cccc(-c3cccc(NC(=O)c4cn(C)c(=O)n(C)c4=O)c3C)c2C)cc(F)c1CNCCCC(N)=O [Example 1.081]
21,< 10 nM,COc1cc(-c2cccc(-c3cccc(NC(=O)c4cn(C)c(=O)n(C)c4=O)c3C)c2C)cc(F)c1CNCCC1CNC(=O)C1 (centres unmarked) [Example 1.082]
22,< 10 nM,COc1cc(-c2cccc(-c3cccc(NC(=O)c4c[nH]c(=O)n(C)c4=O)c3C)c2C)cc(F)c1CNCCCC(N)=O [Example 1.083]

row,IC50,SMILES
1,10 to 1000 nM,COc1cc(-c2cccc(-c3cccc(NC(=O)c4cncn(C)c4=O)c3C)c2C)cc(F)c1CN(C)[C@@H]1CNC(=O)C1 [Example 1.084]
2,< 10 nM,COc1cc(-c2cccc(-c3cccc(NC(=O)c4c[nH]c(=O)n(C)c4=O)c3C)c2C)cc(F)c1CNCC(C)(C)C(N)=O [Example 1.085]
3,< 10 nM,COc1cc(-c2cccc(-c3cccc(NC(=O)c4c[nH]c(=O)n(C)c4=O)c3C)c2C)cc(F)c1CNCCC1CNC(=O)C1 (centres unmarked) [Example 1.086]
4,< 10 nM,COc1cc(-c2cccc(-c3cccc(NC(=O)c4cncn(C)c4=O)c3C)c2C)cc(F)c1CNC1CCOCC1 [Example 1.087]
5,< 10 nM,COc1cc(-c2cccc(-c3cccc(NC(=O)c4nn(C)c(=O)n(C)c4=O)c3C)c2C)cc(F)c1CNCC[C@@H]1CCC(=O)N1 [Example 1.088]
6,< 10 nM,COc1cc(-c2cccc(-c3cccc(NC(=O)c4nn(C)c(=O)n(C)c4=O)c3C)c2C)cc(F)c1CN[C@H]1CCC(=O)NC1 [Example 1.089]
7,< 10 nM,COc1cc(-c2cccc(-c3cccc(NC(=O)c4nn(C)c(=O)n(C)c4=O)c3C)c2C)cc(F)c1CNCCC(N)=O [Example 1.090]
8,< 10 nM,COc1cc(-c2cccc(-c3cccc(NC(=O)c4cncn(C)c4=O)c3C)c2C)cc(F)c1CNCCC(N)=O [Example 1.091]
9,< 10 nM,COc1cc(-c2cccc(-c3cccc(NC(=O)c4nn(C)c(=O)n(C)c4=O)c3C)c2C)cc(F)c1CNCCN1CCCC1=O [Example 1.092]
10,< 10 nM,COc1cc(-c2cccc(-c3cccc(NC(=O)c4cn(C)c(=O)n(C)c4=O)c3C)c2C)cc(F)c1CNC1CCNC(=O)C1 (centres unmarked) [Example 1.093]
11,< 10 nM,COc1cc(-c2cccc(-c3cccc(NC(=O)c4c[nH]c(=O)n(C)c4=O)c3C)c2C)cc(F)c1CN[C@@H]1CCC(=O)NC1 [Example 1.094]
12,< 10 nM,COc1cc(-c2cccc(-c3cccc(NC(=O)c4cn(C)c(=O)n(C)c4=O)c3C)c2C)cc(F)c1CNCC1CCCNC1=O (centres unmarked) [Example 1.095]
13,< 10 nM,COc1cc(-c2cccc(-c3cccc(NC(=O)c4c[nH]c(=O)n(C)c4=O)c3C)c2C)cc(F)c1CNC1CCNC(=O)C1 (centres unmarked) [Example 1.096]
14,< 10 nM,COc1cc(-c2cccc(-c3cccc(NC(=O)c4cccn(C)c4=O)c3C)c2C)cc(F)c1CNCc1c[nH]c(=O)[nH]c1=O [Example 1.097]
15,< 10 nM,COc1cc(-c2cccc(-c3cccc(NC(=O)c4cncn(C)c4=O)c3C)c2C)cc(F)c1CNCC1CCCNC1=O (centres unmarked) [Example 1.098]
16,< 10 nM,COc1cc(-c2cccc(-c3cccc(NC(=O)c4cncn(C)c4=O)c3C)c2C)cc(F)c1CNCCN1CCCC1=O [Example 1.099]
17,< 10 nM,COc1cc(-c2cccc(-c3cccc(NC(=O)c4c[nH]c(=O)n(C)c4=O)c3C)c2C)cc(F)c1CNCC1CCCNC1=O (centres unmarked) [Example 1.100]
18,10 to 1000 nM,COc1cc(-c2cccc(-c3cccc(Nc4nccc5nccnc45)c3C)c2C)cc(F)c1CNCc1c[nH]c(=O)[nH]c1=O [Example 1.101]
19,< 10 nM,COc1cc(-c2cccc(-c3cccc(NC(=O)c4cncn(C)c4=O)c3C)c2C)cc(F)c1CN[C@@H]1CCC(=O)NC1 [Example 1.102]
20,< 10 nM,COc1cc(-c2cccc(-c3cccc(NC(=O)c4cncn(C)c4=O)c3C)c2C)cc(F)c1CNC1CCNC(=O)C1 (centres unmarked) [Example 1.103]
21,< 10 nM,COc1cc(-c2cccc(-c3cccc(NC(=O)c4nn(C)c(=O)n(C)c4=O)c3C)c2C)cc(F)c1CNC[C@@H]1CCC(=O)N1 [Example 1.104]
22,< 10 nM,COc1cc(-c2cccc(-c3cccc(NC(=O)c4nn(C)c(=O)n(C)c4=O)c3C)c2C)cc(F)c1CN[C@@H]1CNC(=O)C1 [Example 1.105]
